The NIST ThermoML archive (doi:10.1021/je060243s)
“And” between values parts separate entries of the source, which are not always exact repeats. Equal values may be shown once.

Assay: wn = mass fraction of the nth substance listed
Conditions: Liquid, Pulse-echo method, w2 = 0.5

FC(F)C(F)(F)F [pentafluoroethane] + FCF
speed of sound
Conditions | 288.2 K | 298.2 K | 308.25 K | 318.17 K | 328.17 K | 338.16 K
1650 kPa | 500.3 m/s | – | – | – | – | –
1680 kPa | – | 440.6 m/s and 440.2 m/s and 440.3 m/s | – | – | – | –
1750 kPa | 501.7 m/s | 441.7 m/s | – | – | – | –
1880 kPa | 503.4 m/s | 444 m/s | – | – | – | –
2010 kPa | 505.1 m/s | 446 m/s | – | – | – | –
2130 kPa | – | 448.2 m/s | – | – | – | –
2170 kPa | – | – | 383.3 m/s and 383.4 m/s | – | – | –
2250 kPa | 508.2 m/s | 450 m/s | 384.9 m/s | – | – | –
2380 kPa | – | – | 387.7 m/s | – | – | –
2510 kPa | 511.3 m/s | 454 m/s | 390.5 m/s | – | – | –
2750 kPa | 514.7 m/s | 457.8 m/s | 395.6 m/s | 323.4 m/s | – | –
2760 kPa | – | – | – | 323.6 m/s | – | –
2880 kPa | – | – | – | 327.2 m/s | – | –
3010 kPa | 517.7 m/s | 461.7 m/s | 400.6 m/s | 330.8 m/s | – | –
3250 kPa | – | – | – | 337.8 m/s | – | –
3470 kPa | – | – | – | – | 257.9 m/s and 258.1 m/s and 258 m/s | –
3500 kPa | 524 m/s | 469.1 m/s | 409.9 m/s | 344.5 m/s | – | –
3590 kPa | – | – | – | – | 263.4 m/s | –
3720 kPa | – | – | – | – | 269.8 m/s | –
3860 kPa | – | – | – | – | 275.4 m/s | –
4000 kPa | 529.7 m/s | 475.9 m/s | 418.9 m/s | 356.6 m/s | 281.3 m/s | –
4250 kPa | – | – | – | – | 290.2 m/s | –
4340 kPa | – | – | – | – | – | 183.3 m/s
4410 kPa | – | – | – | – | – | 189.7 m/s
4500 kPa | 535.6 m/s | 483 m/s | 427.4 m/s | 367.9 m/s | 298.5 m/s | 200.4 m/s
4750 kPa | – | – | – | – | – | 217.6 m/s
5000 kPa | 541.1 m/s | 489.9 m/s | 435.6 m/s | 378.2 m/s | 313.4 m/s | 231.3 m/s
5500 kPa | – | – | – | – | – | 255.4 m/s
6010 kPa | 552 m/s | 502.6 m/s | 450.5 m/s | 397.4 m/s | 339.3 m/s | 273.8 m/s
7010 kPa | 562.3 m/s | 514.4 m/s | 464.7 m/s | 414.5 m/s | 360.6 m/s | 303.5 m/s
8000 kPa | 572.3 m/s | 525.7 m/s | 477.8 m/s | 429.7 m/s | 379.4 m/s | 327.5 m/s
9000 kPa | 582 m/s | 536.4 m/s | 490.2 m/s | 444.1 m/s | 396.7 m/s | 348.4 m/s
10000 kPa | 591.2 m/s | 546.7 m/s | 501.7 m/s | 457.3 m/s | 412.2 m/s | 366.8 m/s
12000 kPa | 608.7 m/s | 566.4 m/s | 523.6 m/s | 481.7 m/s | 440.2 m/s | 398.9 m/s
14000 kPa | 625.1 m/s | 584.5 m/s | 543.5 m/s | 503.8 m/s | 464.8 m/s | 426.3 m/s
16010 kPa | 640.6 m/s | 601.6 m/s and 601.3 m/s | 562.1 m/s | 524.3 m/s | 487.3 m/s | 450.8 m/s
18000 kPa | 655.7 m/s | 617.3 m/s | 579.5 m/s | 543.1 m/s | 507.4 m/s | 472.9 m/s
20000 kPa | 669.7 m/s | 632.4 m/s | 596 m/s | 560.6 m/s | 526.4 m/s | 493.2 m/s
23000 kPa | 689.6 m/s | 653.8 m/s | 619 m/s | 585.3 m/s | 552.3 m/s | 521.1 m/s
26000 kPa | 708.7 m/s | 673.7 m/s | 640 m/s | 607.9 m/s | 576.7 m/s | 546.3 m/s
29010 kPa | 727 m/s | 693 m/s | 660.1 m/s | 628.9 m/s | 598.7 m/s | 569.7 m/s
32000 kPa | 744 m/s | 711.1 m/s | 678.9 m/s | 648.5 m/s | 619.2 m/s | 591.3 m/s
35000 kPa | 760.4 m/s | 728.5 m/s | 697.2 m/s | 667.3 m/s | 638.6 m/s | 611.3 m/s
40000 kPa | 786.1 m/s | 754.9 m/s | 725.2 m/s | 696.7 m/s | 669 m/s | 642.8 m/s
45000 kPa | 810 m/s | 780.3 m/s | 751.3 m/s | 723.8 m/s | 697.4 m/s | 671.7 m/s
50000 kPa | 833 m/s | 803.7 m/s | 775.7 m/s | 749.1 m/s | 723.3 m/s | 698.8 m/s
55000 kPa | 854.6 m/s | 826.3 m/s | 798.8 m/s | 772.8 m/s | 747.8 m/s | 724.1 m/s
60000 kPa | 875.4 m/s | 847.6 m/s | 821 m/s | 795.7 m/s | 770.9 m/s | 747.7 m/s
65000 kPa | 895.5 m/s | 868.2 m/s | 841.9 m/s | 817.3 m/s | 793.1 m/s | 770.1 m/s

Conditions | speed of sound [m/s]
298.25 K | 440.4
308.25 K | 383.4
318.17 K | 323.4
